Experiments:
Assay type in all cases: biochemical
[1] = target: T1, human leukocyte elastase (HLE) (Homo sapiens, UniProt P08246); test: Test 1: Measurement of inhibitory activity against HLE; settings: MeO-Suc-Ala-Ala-Pro-Val-pNA substrate, pH 8.6, 37° C., 10 min after mixing enzyme and inhibitor, steady state rate
T1 construct: HLE was purified according to the method described by A. J. Barrett; from tissue; host or cells: purified from natural human material by Barrett's method (Methods in Enzymology 80, 581-588, 1981)
T1 sequence (P08246 30-247 limits assumed): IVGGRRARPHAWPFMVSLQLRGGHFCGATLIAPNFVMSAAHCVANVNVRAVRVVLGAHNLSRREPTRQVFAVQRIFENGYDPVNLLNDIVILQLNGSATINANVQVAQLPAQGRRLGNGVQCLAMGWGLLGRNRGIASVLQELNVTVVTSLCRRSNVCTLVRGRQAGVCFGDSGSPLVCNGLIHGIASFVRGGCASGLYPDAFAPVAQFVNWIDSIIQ
Protocol: (§1) In order to investigate the serine protease inhibiting activity of the 4H-3,1-benzoxazin-4-one derivatives according to the present invention, human leukocyte elastase (HLE), bovine α-chymotrypsin (CYT), and human cathepsin G (HCG) were used in accordance with the following methods.
(§2) Note that the 4H-3,1-benzoxazin-4-one derivative of the present invention was dissolved in dimethylsulfoxide (DMSO) to adjust to the concentration to 1 mg/ml. This solution was serially diluted with DMSO, and twice the volume of measurement buffer was added to these DMSO solutions to provide the inhibitor solution. Test 1: Measurement of inhibitory activity against HLE
0.2M tris-hydrochloride buffer (pH=8.6)
HLE was purified according to the method described by A. J. Barrett ("Methods in Enzymology", Vol. 80, pp. 581 to 588, 1981) and adjusted to a concentration of 190 nM with measurement buffer. This solution was used as the enzyme solution.
Methoxysuccinyl-L-alanyl-L-alanyl-L-prolyl-L-valyl-paranitroanilide (Funakoshi Co. Ltd., Tokyo, Japan) as enzyme substrate was dissolved and adjusted to a concentration of 5 mM with DMSO. This DMSO solution was diluted with twice the volume of measurement buffer, and then used as the substrate solution.
(§3) The enzyme solution, the substrate solution, and the inhibitor solution were pre-incubated at 37° C. for 10 minutes. The enzyme solution (140 μl) and the inhibitor solution (30 μl) were mixed in a well of a 96-well microtiter plate (Nunc Co. Ltd., Roskilde, Denmark), and the substrate solutions (30 μl) were added 10 minutes after the mixing, thereby starting the enzyme reaction. Hydrolysis of the substrate was monitored by the measurement of absorbance at 405 nm using a micro plate photometer (Corona Co. Ltd, Tokyo, Japan). The inhibitor concentration at which the activity of HLE was inhibited by 50% (IC50) was calculated from the substrate hydrolysis rate in the steady state.

[2] = target: T2, bovine α-chymotrypsin (CYT) (Bos taurus, UniProt P00766); test: Test 2: Measurement of inhibitory activity against CYT; settings: MeO-Suc-Ala-Ala-Pro-Phe-pNA substrate, pH 8.0, same procedures as Test 1
T2 construct: purchased Sigma Co. Ltd., St. Louise, MO
Protocol: as §1, §2, §3
Test 2: Measurement of inhibitory activity against CYT.
0.2M tris-hydrochloride buffer (pH=8.0)
CYT (Sigma Co. Ltd., St. Louise, MO) was adjusted to a concentration of 190 nM with the measurement buffer. This solution was used as the enzyme solution.
Methoxysuccinyl-L-alanyl-L-alanyl-L-prolyl-L-phenylalanyl-paranitroanilide (Funakoshi) as the enzyme substrate was dissolved and adjusted to a concentration of 5 mM with DMSO. This DMSO solution was diluted with twice the volume of measurement buffer, and then used as the substrate solution.
IC50 against CYT was determined in the same procedures detailed in Test 1.

human cathepsin G (HCG) = target: T3, human cathepsin G (HCG) (Homo sapiens, UniProt P08311); test: Test 3: Measurement of inhibitory activity against HCG; settings: MeO-Suc-Ala-Ala-Pro-Phe-pNA substrate, pH 7.5, same procedure as Test 1
T3 construct: purchased Cosmo Bio Co. Ltd., Tokyo, Japan
T3 sequence (P08311 21-244 limits assumed): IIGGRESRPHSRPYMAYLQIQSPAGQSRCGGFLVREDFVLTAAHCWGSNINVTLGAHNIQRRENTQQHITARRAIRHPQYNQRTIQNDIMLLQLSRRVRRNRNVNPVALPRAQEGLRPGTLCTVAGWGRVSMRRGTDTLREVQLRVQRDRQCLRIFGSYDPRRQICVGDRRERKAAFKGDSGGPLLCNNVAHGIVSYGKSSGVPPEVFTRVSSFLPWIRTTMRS
Protocol: as §1, §2, §3
Test 3: Measurement of inhibitory activity against HCG.
0.2M tris-hydrochloride buffer (pH=7.5)
HCG (Cosmo Bio Co. Ltd., Tokyo, Japan) was adjusted to a concentration of 190 nM with the measurement buffer. This solution was used as the enzyme solution.
Methoxysuccinyl-L-alanyl-L-alanyl-L-prolyl-L-phenylalanyl-paranitroanilide (Funakoshi) as the enzyme substrate was dissolved and adjusted to a concentration of […] with DMSO. This DMSO solution was diluted with twice the volume of the measurement buffer, and then used as the substrate solution.
IC50 against HCG was determined in the same procedure detailed in Test 1.

Row | IC50 [1] | IC50 [2] | IC50 (human cathepsin G (HCG)) | Compound
1 | 1.15 µM | 10.7 µM | > 200 µM | Cc1cccc2nc([C@@H](NC(=O)[C@@H]3C[C@@H](O)CN3C(=O)OCc3ccccc3)C(C)C)oc(=O)c12 [Example 12, (1'S)-2-[1'-(N-benzyloxycarbonyl-trans-4-hydroxy-L-prolyl)amino-2'-methyl]propyl-5-methyl-4H-3,1-benzoxazin-4-one]
2 | 0.28 µM | 2.89 µM | > 50 µM | Cc1cccc2nc([C@@H](NC(=O)[C@@H]3CCCN3C(=O)OCc3ccccc3)C(C)C)oc(=O)c12 [Example 1, (1'S)-2-[1'-(N-benzyloxycarbonyl-L-prolyl)amino-2'-methyl]propyl-5-methyl-4H-3,1-benzoxazin-4-one]
3 | 2.72 µM | 18.3 µM | 26.5 µM | Cc1cccc2nc([C@@H](NC(=O)[C@@H]3CCCN3C(=O)OC(C)(C)C)C(C)C)oc(=O)c12 [Example 2, (1'S)-2-[1'-(N-tert-butyloxycarbonyl-L-prolyl)amino-2'-methyl]propyl-5-methyl-4H-3,1-benzoxazin-4-one]
4 | 1.31 µM | 15.6 µM | > 200 µM | Cc1cccc2nc([C@@H](NC(=O)[C@@H]3CCCN3C(=O)/C=C/c3ccccc3)C(C)C)oc(=O)c12 [Example 3, (1'S)-2-[1'-(N-cinnamoyl-L-prolyl)amino-2'-methyl]propyl-5-methyl-4H-3,1-benzoxazin-4-one]
5 | 2.98 µM | 22.1 µM | 15 µM | COC(=O)CCC(=O)N[C@@H](C)C(=O)N[C@@H](C)C(=O)N1CCC[C@H]1C(=O)N[C@H](c1nc2cccc(C)c2c(=O)o1)C(C)C [Example 6, (1'S)-2-[1'-(methoxysuccinyl-L-alanyl-L-alanyl-L-prolyl)amino-2'-methyl]propyl-5-methyl-4H-3,1-benzoxazin-4-one]
6 | 0.99 µM | 4.51 µM | > 50 µM | CSCC[C@H](NC(=O)[C@@H]1CCCN1C(=O)OCc1ccccc1)c1nc2cccc(C)c2c(=O)o1 [Example 10, (1'S)-2-[1'-(N-benzyloxycarbonyl-L-prolyl)amino-3'-(methylthio)]propyl-5-methyl-4H-3,1-benzoxazin-4-one]
7 | 1.22 µM | 11.3 µM | > 140 µM | CCCCCC(=O)N1CCC[C@H]1C(=O)N[C@H](c1nc2cccc(C)c2c(=O)o1)C(C)C [Example 5, (1'S)-2-[1'-(N-hexanoyl-L-prolyl)amino-2'-methyl]propyl-5-methyl-4H-3,1-benzoxazin-4-one]
8 | 0.52 µM | 8.69 µM | > 200 µM | Cc1cccc2nc([C@@H](NC(=O)[C@@H]3CCCN3C(=O)CCc3ccccc3)C(C)C)oc(=O)c12 [Example 4, (1'S)-5-methyl-2-{2'-methyl-1'-[N-(3-phenylpropionyl)-L-prolyl]amino}propyl-4H-3,1-benzoxazin-4-one]
